Laboratory results from patent publication US4127687A, “Prevention of fouling of marine structures such as boat hulls” (Rohm and Haas Company, priority 1976, dated 1978).
≈ marks a conversion by molar mass, not a printed value. Where “and” joins values, the source holds several entries; their conditions need not be identical. Equal entries are not always repeated.

Tests used:
[1] = Amount of toxicant remaining in the test container after membrane diffusion raft tests; type: physicochemical; set-up: key: 0: empty or trace; +: some; + +: ample; details: after completion of membrane diffusion raft tests
Source text: (§1) A known quantity of the test compound is placed into a cylindrical plastic container whose open end is then covered with a membrane of known porosity; the complete unit is attached to the appropriate raft panel so that the poison can freely diffuse into the free water layer around it. Regular inspections, recording time and quantity of settlement, allow a life history of each membrane trial to be constructed. Each raft panel contains 35 compounds to be evaluated together with 4 standard poisons and 1 non-toxic membrane for control.
(§2) After the completion of membrane tests the contents of all containers are checked visually for poison loss. An empty container indicates an unacceptably high solubility for long term effectiveness; where the poison loss is low the compound is tested in one of two ways depending on its performance against fouling.
^b Amount of toxicants remaining in the test container after the
completion of the membrane diffusion raft tests: 0 = empty or trace, + =

barnacle = assay: Membrane Diffusion Raft Trials, barnacle control; type: in vivo, barnacles; details: membrane test, average 15 to 16 weeks of immersion
Source text: (§3) 1). FIELD TESTS: - Membrane Diffusion Raft Trials
(§4) A specially constructed raft provides three types
(§5) a). Waterline Well illuminated, aerated
(§6) b). Flats Poorly illuminated deeper
as §1
(§7) The behavior on the raft can thus be compared with that of the standard poisons and the non-toxic control. At normal loading a membrane over the standard poisons would be free from macro-fouling after six months immersion. Compounds showing selective effects against restricted groups of fouling organisms also show up by membrane testing.
as §2
(§8) In the membrane tests, the results of approximately 140 compounds evaluated appear in Table 1. The symbols "0" means no detactable effect, the symbol "+" indicates the compound is active against the given fouling organism, and the symbol "++" means that the compound appears to be effective over at least about a four month period for essentially preventing fouling activity by the given organism. In the Table, "weed" designates a grass-like algal growth common in sea water.
(§9) Membrane Test results are of an average 15 to 16 weeks of immersion,
(§10) ^a 0 = none, + = some, + + = effective.
^f The 1975 Spring settlement of barnacles was very meager and the […]

weed = assay: Membrane Diffusion Raft Trials, weed control; type: in vivo, grass-like algal growth common in sea water; details: membrane test, average 15 to 16 weeks of immersion
Source text: as §3, §4, §5, §6, §1, §7, §2, §8, §9, §10

[2] = Water solubility by UV spectrophotometric method; type: physicochemical; details: for solubility: water, saturated solution, Table 1, read-out: Solubility by UV method
Experimental: The water solubilities of several isothiazolones were determined by UV spectrophotometric measurements of saturated aqueous solution of each compound in comparison with measurement of solutions of carefully prepared known concentration as outlined in the following example.
DETERMINATION OF SOLUBILITY OF 5-CHLORO-2-(4-FLUOROPHENYL)-4-METHYL-3-ISOTHIAZOLONE OF EXAMPLE 115
A sample of 5-chloro-2-(4-fluorophenyl)-4-methyl-3-isothiazolone (0.0406 g., 1.67 × 10^-4 mole) was dissolved in 50 ml. of methanol. A 5 ml. aliquot of the solution was diluted to 1000 ml. with deionized water, providing a solution of 1.67 × 10^-5 moles/liter concentration. An ultraviolet spectrum of this solution was run using a 10 cm. cell. The absorbance (As) at the wave length of maximum absorption (279 nm.) was 1.208. The molar absorptivity, AM, was calculated from the relationship
where b and c are path length or cell thickness and concentration respectively. Thus, AM was [formula]
Another sample of the compound (0.3-0.5 g.) was stirred vigorously in 40 ml. of deionized water for approximately 72 hrs. to give a saturated solution. The mixture was filtered through very fine filter paper (Whatman No. 50) to remove all suspended solid. Small portions of the filtrate were diluted with water by various factors until an approximately mid-scale absorbance was obtained upon running an ultraviolet spectrum. Such an absorbance was obtained at a dilution of 10. The absorbance was 0.975 in a 10 cm. cell. Using the value for AM obtained earlier, in the equation

Structure (SMILES)	Contents at the end of test (amount of toxicants remaining in the test container) [1]	Barnacle Control (barnacle)	Weed Control (weed)	solubility [2] [µg/mL]	solubility thermodynamic at 72 h ([2]; deionized water, stirred approximately 72 hrs., UV, read-out: concentration of the saturated solution)	solubility at 72 h ([2]; deionized water, stirred approximately 72 hrs., UV, read-out: solubility of this compound) [µg/mL]
CCCCCCCCCCCCCCCCCCn1sccc1=O [Example 8]	+ +	0	0	–	–	–
O=c1ccsn1CCc1ccc(Cl)cc1 [Example 9]	0	0	0	–	–	–
O=c1ccsn1-c1ccccc1 [Example 11]	0	0	0	–	–	–
CCCCCCC(C)n1sc(Cl)cc1=O (stereo not drawn) [Example 18]	–	–	–	175 (≈ 706 µM)	–	–
CC(C)CCCC(C)n1sc(Cl)cc1=O (stereo not drawn) [Example 19]	–	–	–	190 (≈ 767 µM)	–	–
CCC(C)CC(CC)n1sc(Cl)cc1=O (stereo not drawn) [Example 20]	–	–	–	300 (≈ 1210 µM)	–	–
CC(C)(C)CC(C)(C)n1sc(Cl)cc1=O [Example 21]	–	–	–	200 (≈ 807 µM)	–	–
CCCCCCCCCCCCCCn1sc(Cl)cc1=O [Example 24]	+ +	+ +	0	–	–	–
CCCCCCCCCCCCCCCCn1sc(Cl)cc1=O [Example 25]	+ +	0	0	–	–	–
CC1CC(n2sc(Cl)cc2=O)CC(C)(C)C1 (stereo not drawn) [Example 28]	–	–	–	185 (≈ 712 µM)	–	–
CC(c1ccccc1)n1sc(Cl)cc1=O (stereo not drawn) [Example 30]	–	–	–	420 (≈ 1750 µM)	–	–
O=c1cc(Cl)sn1Cc1ccccc1 [Example 31]	–	–	–	390 (≈ 1730 µM)	–	–
O=c1cc(Cl)sn1-c1ccc(Cl)c(Cl)c1 [Example 37]	+ +	+	+	–	–	–
O=c1cc(Cl)sn1-c1ccc(Cl)c(C(F)(F)F)c1 [Example 40]	+ +	0	+	–	–	–
O=c1c(Cl)csn1Cc1ccc(Cl)cc1 [Example 46]	+ +	0	+	–	–	–
CCCCCCCCCCCCn1scc(Br)c1=O [Example 50]	+ +	+	0	–	–	–
O=c1c(Br)csn1CCc1ccccc1 [Example 52]	+	0	0	–	–	–
O=c1c(Br)csn1-c1ccc(Cl)cc1 [Example 54]	+ +	0	0	–	–	–
CCCCCCC(C)n1sc(Cl)c(Cl)c1=O (stereo not drawn) [Example 60]	–	–	–	50 (≈ 177 µM)	–	–
CC(C)CCCC(C)n1sc(Cl)c(Cl)c1=O (stereo not drawn) [Example 61]	–	–	–	55 (≈ 195 µM)	–	–
CCC(C)CC(CC)n1sc(Cl)c(Cl)c1=O (stereo not drawn) [Example 62]	–	–	–	85 (≈ 301 µM)	–	–
CC1CC(n2sc(Cl)c(Cl)c2=O)CC(C)(C)C1 (stereo not drawn) [Example 68]	–	–	–	45 (≈ 153 µM)	–	–
CC(c1ccccc1)n1sc(Cl)c(Cl)c1=O (stereo not drawn) [Example 70]	–	–	–	50 (≈ 182 µM)	–	–
O=c1c(Cl)c(Cl)sn1-c1cccc(Cl)c1 [Example 76]	+ +	0	+	–	–	–
O=c1c(Cl)c(Cl)sn1-c1cc(Cl)cc(Cl)c1 [Example 77]	+ +	0	0	–	–	–
Cc1ccc(-n2sc(Cl)c(Cl)c2=O)cc1Cl [Example 81]	+ +	0	0	–	–	–

Structure (SMILES)	Contents at the end of test (amount of toxicants remaining in the test container) [1]	Barnacle Control (barnacle)	Weed Control (weed)	solubility [2] [µg/mL]	solubility thermodynamic at 72 h ([2]; deionized water, stirred approximately 72 hrs., UV, read-out: concentration of the saturated solution)	solubility at 72 h ([2]; deionized water, stirred approximately 72 hrs., UV, read-out: solubility of this compound) [µg/mL]
O=c1c(Cl)c(Cl)sn1-c1ccc([N+](=O)[O-])cc1 [Example 82]	+ +	0	0	–	–	–
CCCCc1ccc(-n2sc(Cl)c(Cl)c2=O)cc1 [Example 83]	+ +	+	0	–	–	–
CCCCCCCCCCn1sc(Cl)c(Br)c1=O [Example 89]	+ +	0	0	–	–	–
O=c1c(Br)c(Cl)sn1C1CCCCC1 [Example 90]	–	–	–	45 (≈ 152 µM)	–	–
O=c1c(Br)c(Cl)sn1CCc1ccc(Cl)cc1 [Example 92]	+	0	0	–	–	–
Cn1sc(Br)c(Br)c1=O [Example 94]	0	0	+	–	–	–
CCCCCCCCCCn1sc(Br)c(Br)c1=O [Example 96]	+ +	0	0	–	–	–
CCCCCCCCCCCCn1sc(Br)c(Br)c1=O [Example 97]	+ +	0	0	–	–	–
Cc1c(Cl)sn(C)c1=O [Example 100]	0	0	0	–	–	–
CCCCCCCCn1sc(Br)c(C)c1=O [Example 102]	0	+	+	–	–	–
CCCCC(CC)Cn1sc(Cl)c(C)c1=O (stereo not drawn) [Example 103]	–	–	–	102 (≈ 390 µM)	–	–
CCCCCCCCCCCCn1sc(Cl)c(C)c1=O [Example 105]	+ +	+	0	–	–	–
CCCCCCCCCCCCCCn1sc(Cl)c(C)c1=O [Example 106]	+ +	0	0	–	–	–
Cc1c(Cl)sn(-c2ccccc2Cl)c1=O [Example 112]	–	–	–	23 (≈ 88.4 µM)	–	–
Cc1c(Cl)sn(-c2ccc(F)cc2)c1=O [Example 115, 5-chloro-2-(4-fluorophenyl)-4-methyl-3-isothiazolone]	–	–	–	35 (≈ 144 µM)	135 µM and 32.8 µg/mL	33 (≈ 135 µM)
Cc1c(Cl)sn(-c2ccc(Br)cc2)c1=O [Example 116]	–	–	–	7 (≈ 23 µM)	–	–
Cc1ccc(-n2sc(Cl)c(C)c2=O)cc1 [Example 120]	–	–	–	60 (≈ 250 µM)	–	–
Cc1c(Cl)sn(-c2ccc(Oc3ccccc3)cc2)c1=O [Example 124]	+ +	0	0	–	–	–
Cc1c(Cl)sn(-c2cccc(C(F)(F)F)c2)c1=O [Example 129]	–	–	–	12 (≈ 40.9 µM)	–	–
Cc1c(Cl)sn(-c2ccc(C(F)(F)F)cc2)c1=O [Example 130]	–	–	–	7 (≈ 23.8 µM)	–	–
Cc1c(Cl)sn(-c2ccc(Cl)c(C(F)(F)F)c2)c1=O [Example 131]	+ +	0	0	–	–	–
Cc1cc(-n2sc(Cl)c(C)c2=O)ccc1Br [Example 133]	+ +	0	0	–	–	–
Cc1c(Cl)sn(-c2ccc(Cl)cc2Cl)c1=O [Example 135]	–	–	–	4 (≈ 13.6 µM)	–	–
Cc1c(Cl)sn(-c2cc(Cl)cc(Cl)c2)c1=O [Example 136]	–	–	–	3 (≈ 10.2 µM)	–	–
Cc1csn(-c2cccc(Cl)c2)c1=O [Example 138]	+ +	0	+	–	–	–
Cc1csn(-c2ccc(Cl)c(Cl)c2)c1=O [Example 140]	+ +	0	0	–	–	–
